According to patent US10023565B2, “N,N′ substituted piperidinamine compounds, and preparation method and usage thereof” (Institute of Pharmacology and Toxicology Academy of …, priority 2013, dated 2018):

Columns and labels:
mice = assay: Acute toxicity experiment with single intragastric administration to mice; format: in vivo; conditions: for Quantity of animals (survival/death): 14 d observation
Description: Acute toxicity experiment with single intragastric administration to mice of the compound of Example 36 according to the following method
(2) Preparation of test sample: a suitable amount of sample was weighed, and suspended in 0.5% CMC-Na, followed by vortex vibration till uniform. The resulting suspension was fully vibrated before administration.
According to the results of pre-experiment, experiment was conducted using Fixed-dose procedure. 70 mice were randomly divided into 7 groups, 10 mice each group, male and female in half. The administration doses were respectively: 1555, 1296, 1080, 900, 750, 625 and 520 mg/kg, and observation of the animals after administration continued for 14 days.
Observation was conducted once 5 min, 10 min, 20 min, 30 min, 1 h, 2 h, 4 h, 6 h, 8 h, 12 h, 18 h, 1 d, 2 d, 3 d, 7 d and 14 d respectively after administration, to record the animal death and toxic response.
LD50 was calculated by statistical analysis using SAS software.
2. Calculation of LD50 Using Bliss Method

Hsp70 = target: T1, Hsp70 (Homo sapiens, UniProt P0DMV8); assay: Measurement of affinity between compounds and Hsp70 (SPR, BIACORE T100); format: binding
T1 construct: purchased Enzo Life Sciences ADI-ESP-550-D
Description: Instrument for measuring the affinity between Example compounds and Hsp70 is BIACORE T100 Biomolecular Interaction Analysis (GE, USA), and the positive control drug is VER-155008 that is well-recognized as Hsp70 inhibitor now, and, on the basis of the measured results, according to binding characteristics between the compounds and protein, the binding constant (equilibrium dissociation constant KD) between drugs and protein is calculated by selecting steady state model with the formula: Conc*Rmax/[conc+KD]+offset.
1. Instrument: BIACORE T100 Biomolecular Interaction Analysis (GE, USA)
2. Reagents: PBS Buffer (×10), P20, CM5 chip (GE, USA), Hsp70 (human, ADI-ESP-550-D), manufactured by Enzo Life Sciences.
30 mM mother liquor of the compound was formulated with DMSO, which was diluted to 2 mM application solution with DMSO before use. 5 μl of the application solution was taken and diluted with 95 μl 1.05×PBS to 100 μM, and then diluted in turn with PBS containing 5% DMSO to […]. PBS containing 5% DMSO was used as solvent control.
Hsp70 protein was diluted with 10 mmol/L sodium acetate buffer solution (pH 5.0) to 30 μg/ml, and coupled directly on a hydrophilic carboxylmethyl dextran matrix sensor chip M5 through normalized primary amine coupling reaction, RU=11209, and then the chip was balanced for 1-2 h with PBS Buffer at […].
At a flow rate of […], with PBS containing 5% DMSO as mobile phase, at 25° C., the compound was introduced in the sequence of 0.003, 0.01, 0.03, 0.1, 0.3, 1, 3 and 10 μM, with binding time of 90 seconds, and dissociation time of 120 seconds.
According to binding characteristics between the compounds and protein, the binding constant (equilibrium dissociation constant KD) between drugs and protein was calculated by selecting steady state model with the formula: Conc*Rmax/[conc+KD]+offset.

T1 sequence (P0DMV8 whole entry): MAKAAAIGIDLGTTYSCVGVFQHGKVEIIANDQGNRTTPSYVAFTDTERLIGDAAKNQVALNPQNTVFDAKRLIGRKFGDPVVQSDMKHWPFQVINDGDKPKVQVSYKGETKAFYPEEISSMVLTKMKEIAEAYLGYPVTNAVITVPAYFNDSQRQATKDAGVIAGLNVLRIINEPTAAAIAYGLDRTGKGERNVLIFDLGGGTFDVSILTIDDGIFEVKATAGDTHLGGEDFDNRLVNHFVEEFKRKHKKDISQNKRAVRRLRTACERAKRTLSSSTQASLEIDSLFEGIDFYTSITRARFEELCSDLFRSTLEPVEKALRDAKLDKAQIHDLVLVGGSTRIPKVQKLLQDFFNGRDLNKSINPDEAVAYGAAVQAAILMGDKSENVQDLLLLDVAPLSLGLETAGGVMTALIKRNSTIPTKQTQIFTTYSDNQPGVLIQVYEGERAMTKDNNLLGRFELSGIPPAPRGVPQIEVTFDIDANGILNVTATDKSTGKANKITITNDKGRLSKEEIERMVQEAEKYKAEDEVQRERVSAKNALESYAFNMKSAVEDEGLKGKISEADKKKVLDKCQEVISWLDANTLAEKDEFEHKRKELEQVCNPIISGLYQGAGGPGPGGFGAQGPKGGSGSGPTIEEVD

SMILES: CSc1nccc(N2CCC(N(C)Cc3ccc(C#N)cc3)CC2)n1 [Example 36, N-methyl-N-(4-cyanobenzyl)-N-[1-(2-methylthiopyrimidin-4-yl)piperidin-4-yl]amine]
- Quantity of animals (survival/death) (mice; 520 mg/kg, Female): 5/0
- Quantity of animals (survival/death) (mice; 520 mg/kg, Male): 5/0
- Quantity of animals (survival/death) (mice; 625 mg/kg, Female): 5/0
- Quantity of animals (survival/death) (mice; 625 mg/kg, Male): 4/1
- Quantity of animals (survival/death) (mice; 750 mg/kg, Female): 2/3
- Quantity of animals (survival/death) (mice; 750 mg/kg, Male): 4/1
- Quantity of animals (survival/death) (mice; 900 mg/kg, Female): 2/3
- Quantity of animals (survival/death) (mice; 900 mg/kg, Male): 3/2
- Quantity of animals (survival/death) (mice; 1080 mg/kg, Female): 2/3
- Quantity of animals (survival/death) (mice; 1080 mg/kg, Male): 0/5
- Quantity of animals (survival/death) (mice; 1296 mg/kg, Female): 0/5
- Quantity of animals (survival/death) (mice; 1296 mg/kg, Male): 1/4
- first animal death, time after administration (mice; 1555 mg/kg dose group): 5 min
- Quantity of animals (survival/death) (mice; 1555 mg/kg, Female): 0/5
- Quantity of animals (survival/death) (mice; 1555 mg/kg, Male): 0/5
- gross anatomical examination (mice; animals dead during or killed at end of the experiment): No obvious abnormality was found
- survival of the dose group (mice; mouse, in vivo): all survived
- clinical manifestations of animal poisoning (mice; single intragastric administration, 520-1555 mg/kg): muscle tremors, convulsions, eye closed, curled up into a ball, erected hair, reduced activity, loss of appetite
- LD50 and 95% confidence limit (mice; single intragastric administration, mice, Bliss method, SAS): 869.0 (776.5-969.4) mg/kg
- KD compared with positive control drug VER-155008 (Hsp70): KD values equivalent to that of the positive control drug VER-155008
- Kd (Hsp70; steady state model, 25° C., read-out: KD (binding constant between the compounds and Hsp70)): 246 nM
